The supplement of paper PMC8617591

Tests used:
[1] = tested on: Mycobacterium tuberculosis Erdman (autoluminescent); test: FIC90 (Loewe) at 90% inhibition (log2); higher = more antagonistic
Procedure: (§1)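 DiaMOND equipotent two-drug combination dose responses against autoluminescent M. tuberculosis Erdman in 8 in vitro models. Read-out is OD600, or luminescence for the intracellular and dormancy models, normalised to untreated wells. Hill-fit Einf, AUC25 and GRinf are potency metrics; FIC50 and FIC90 are Loewe-additivity fractional inhibitory concentrations, given as log2 (negative = synergy). Replicates are averaged.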

[2] = tested on: Mycobacterium tuberculosis Erdman (autoluminescent); test: FIC50 (Loewe) at 50% inhibition (log2); higher = more antagonistic
Procedure: as §1

[3] = tested on: Mycobacterium tuberculosis Erdman (autoluminescent); test: Einf, fitted maximum growth inhibition of combination (fraction); higher = stronger maximal inhibition
Procedure: as §1

[4] = tested on: Mycobacterium tuberculosis Erdman (autoluminescent); test: AUC25, normalised area under dose response up to IC25 (fraction (0-1)); higher = more potent at low dose
Procedure: as §1

[5] = tested on: Mycobacterium tuberculosis Erdman (autoluminescent); test: GRinf, maximum normalised growth rate inhibition (unitless (-1 to 1)); higher = less effect (negative = killing)
Procedure: as §1

COc1nc2ccc(Br)cc2cc1[C@@H](c1ccccc1)[C@@](O)(CCN(C)C)c1cccc2ccccc12 [bedaquiline] + NC(=O)c1cnccn1 [pyrazinamide]
Conditions | AUC25, [4] | Einf, [3] | FIC50, [2] | FIC90, [1] | GRinf, [5]
in vitro model: acidic pH 5.7, time point: constant (~7 days, model-specific) | 0.0806 | 0.84 | -0.282 | -1.27 | -0.398
in vitro model: acidic pH 5.7, time point: terminal (~4-5 doublings, model-specific) | 0.0795 | 0.985 | -0.0485 | -0.613 | -0.351
in vitro model: intracellular J774, time point: constant = terminal | – | 0.99 | – | 0.411 | -0.387

Conditions | AUC25, [4] | Einf, [3] | FIC50, [2] | FIC90, [1] | GRinf, [5]
in vitro model: butyrate, time point: constant (~7 days, model-specific) | 0.124 | 0.969 | 0.033 | 0.896 | -0.595
in vitro model: butyrate, time point: terminal (~4-5 doublings, model-specific) | 0.106 | 0.991 | 0.262 | 1.12 | -0.941
in vitro model: cholesterol 0.05 mM, time point: constant (~7 days, model-specific) | 0.101 | 0.746 | – | – | -0.259
in vitro model: cholesterol 0.05 mM, time point: terminal (~4-5 doublings, model-specific) | 0.0985 | 0.949 | 0.282 | – | -0.43
in vitro model: cholesterol-high 0.2 mM, time point: constant (~7 days, model-specific) | 0.0781 | 0.978 | 0.168 | – | -0.543
in vitro model: cholesterol-high 0.2 mM, time point: terminal (~4-5 doublings, model-specific) | 0.0705 | 1 | 0.224 | 0.208 | -0.654
in vitro model: dormancy (butyrate + nitrate, low O2), time point: constant (~7 days, model-specific) | 0.0588 | 0.919 | -1.06 | -1.22 | 0.131
in vitro model: dormancy (butyrate + nitrate, low O2), time point: terminal (~4-5 doublings, model-specific) | 0.0543 | 0.98 | -0.504 | -0.991 | -0.121
in vitro model: standard 7H9 glycerol, time point: constant = terminal | 0.072 | 0.943 | -0.45 | – | -0.0583
in vitro model: valerate, time point: constant (~7 days, model-specific) | 0.0845 | 0.896 | 0.247 | – | -0.0105
in vitro model: valerate, time point: terminal (~4-5 doublings, model-specific) | 0.057 | 0.943 | 0.318 | 0.391 | 0.0136

COc1nc2ccc(Br)cc2cc1[C@@H](c1ccccc1)[C@@](O)(CCN(C)C)c1cccc2ccccc12 [bedaquiline] + NNC(=O)c1ccncc1 [isoniazid]
Conditions | AUC25, [4] | Einf, [3] | FIC50, [2] | FIC90, [1] | GRinf, [5]
in vitro model: acidic pH 5.7, time point: constant (~7 days, model-specific) | 0.107 | 0.873 | 0.428 | – | -0.331
in vitro model: acidic pH 5.7, time point: terminal (~4-5 doublings, model-specific) | 0.0934 | 0.984 | 0.351 | 0.404 | -0.384
in vitro model: intracellular J774, time point: constant = terminal | – | 0.98 | – | 0.531 | -0.383

Conditions | AUC25, [4] | Einf, [3] | FIC50, [2] | FIC90, [1] | GRinf, [5]
in vitro model: butyrate, time point: constant (~7 days, model-specific) | 0.0598 | 0.944 | 0.533 | 0.547 | -0.0886
in vitro model: butyrate, time point: terminal (~4-5 doublings, model-specific) | 0.0557 | 0.98 | 0.43 | 0.506 | -0.111
in vitro model: cholesterol 0.05 mM, time point: constant (~7 days, model-specific) | 0.102 | 0.729 | 0.373 | – | -0.169
in vitro model: cholesterol 0.05 mM, time point: terminal (~4-5 doublings, model-specific) | 0.0662 | 0.913 | 0.302 | 0.193 | -0.202
in vitro model: cholesterol-high 0.2 mM, time point: constant (~7 days, model-specific) | 0.0815 | 0.964 | 0.284 | 0.699 | -0.49
in vitro model: cholesterol-high 0.2 mM, time point: terminal (~4-5 doublings, model-specific) | 0.0507 | 0.996 | 0.335 | 0.25 | -0.658
in vitro model: dormancy (butyrate + nitrate, low O2), time point: constant (~7 days, model-specific) | 0.0656 | 0.92 | 0.646 | 0.194 | 0.179
in vitro model: dormancy (butyrate + nitrate, low O2), time point: terminal (~4-5 doublings, model-specific) | 0.0512 | 0.983 | 0.0908 | -0.202 | -0.0876
in vitro model: standard 7H9 glycerol, time point: constant = terminal | 0.0578 | 0.966 | -0.0769 | -0.0712 | -0.124
in vitro model: valerate, time point: constant (~7 days, model-specific) | 0.0996 | 0.946 | 0.561 | 0.24 | -0.194
in vitro model: valerate, time point: terminal (~4-5 doublings, model-specific) | 0.0554 | 0.971 | 0.661 | 0.741 | -0.129

COc1nc2ccc(Br)cc2cc1[C@@H](c1ccccc1)[C@@](O)(CCN(C)C)c1cccc2ccccc12 [bedaquiline] + O=[N+]([O-])c1cn2c(n1)OC[C@@H](OCc1ccc(OC(F)(F)F)cc1)C2 [pretomanid]
Conditions | AUC25, [4] | Einf, [3] | FIC50, [2] | FIC90, [1] | GRinf, [5]
in vitro model: acidic pH 5.7, time point: constant (~7 days, model-specific) | 0.121 | 0.879 | 0.399 | 0.503 | -0.293
in vitro model: acidic pH 5.7, time point: terminal (~4-5 doublings, model-specific) | 0.0888 | 0.973 | 0.169 | 0.292 | -0.358
in vitro model: intracellular J774, time point: constant = terminal | – | 1 | – | 0.703 | -0.579

Conditions | AUC25, [4] | Einf, [3] | FIC50, [2] | FIC90, [1] | GRinf, [5]
in vitro model: butyrate, time point: constant (~7 days, model-specific) | 0.105 | 0.96 | 0.76 | 1.49 | -0.17
in vitro model: butyrate, time point: terminal (~4-5 doublings, model-specific) | 0.0889 | 0.99 | 0.874 | 1.5 | -0.346
in vitro model: cholesterol 0.05 mM, time point: constant (~7 days, model-specific) | 0.118 | 0.737 | 0.484 | – | -0.158
in vitro model: cholesterol 0.05 mM, time point: terminal (~4-5 doublings, model-specific) | 0.0926 | 0.928 | 0.466 | 1.33 | -0.23
in vitro model: cholesterol-high 0.2 mM, time point: constant (~7 days, model-specific) | 0.0648 | 0.883 | 0.673 | 1.04 | -0.183
in vitro model: cholesterol-high 0.2 mM, time point: terminal (~4-5 doublings, model-specific) | 0.0479 | 0.991 | 0.686 | 0.706 | -0.576
in vitro model: dormancy (butyrate + nitrate, low O2), time point: constant (~7 days, model-specific) | 0.0466 | 0.927 | -0.341 | -0.857 | 0.169
in vitro model: dormancy (butyrate + nitrate, low O2), time point: terminal (~4-5 doublings, model-specific) | 0.0475 | 0.98 | -0.522 | -1.14 | -0.0913
in vitro model: standard 7H9 glycerol, time point: constant = terminal | 0.0817 | 0.982 | 0.0934 | 0.269 | -0.196
in vitro model: valerate, time point: constant (~7 days, model-specific) | 0.136 | 0.935 | 0.105 | 1.2 | -0.238
in vitro model: valerate, time point: terminal (~4-5 doublings, model-specific) | 0.099 | 0.96 | 0.0653 | 0.71 | -0.0796
